This is an account of results in US11779577B2, “Nonselective metabotropic glutamate receptor activators for treatment of anorexia nervosa and binge eating disorder” (The Children's Hospital of Philadelphia, priority 2016, dated 2023).

The structures appear in SMILES notation.

For data set [1], the system named is ADHD. Description: open-label Phase Ib clinical trial in adolescent ADHD subjects with CNV in an mGluR network gene. Format: in vivo, human. How it is done:
Previously, an open-label Phase Ib clinical trial was conducted to study the safety, pharmacokinetics, and efficacy of fasoracetam (fasoracetam monohydrate) in adolescent subjects between the ages of 12 and 17 previously diagnosed with ADHD. Each of the study subjects in this clinical trial had one or more CNV in an mGluR network gene.

Data set [2] deals with dementia-related cognitive impairment. The following applies: cited from earlier work.
Data set [3] relates to group I and group II/III mGluRs. As to conditions: in vitro studies (Hirouchi 2000); cited from earlier work.
The conditions of data set [4]: prior human studies; cited from earlier work.
For data set [5], the system named is adenylate cyclase activity. As to conditions: cited from earlier work.
The subject of data set [6] is pediatric ADHD subjects. As to conditions: compared to a placebo control; cited from earlier work.

For the compound `O=C1CC[C@H](C(=O)N2CCCCC2)N1` [fasoracetam], the “treatment of ADHD” value in data set [1] (adolescent subjects ages 12 to 17 with one or more CNV in an mGluR network gene) was “successfully treated”. Further, in data set [1] (children tested in the ADHD clinical study), the appetite entry was “appetite was observed to be improved”. Further, the safety and tolerability result in data set [2] (Phase I-III trials, dementia-related cognitive impairment) is “generally safe and well tolerated”. In addition, the “effects on psychiatric symptoms” value in data set [2] (Phase III data, cerebral infarct patients and adult dementia patients with cerebrovascular diseases) is given as “beneficial effects”. Also, the efficacy in dementia result in data set [2] (Phase III trials) is “did not show sufficient efficacy”. The “stimulation of mGluRs” value in data set [3] is “stimulate both group I and group II/III mGluRs”. Moreover, in data set [4], the bioavailability is given as 79%-97% and the half-life (commonly the time in which the quantity being followed falls by half) is 5 to 6.5 h. Besides, the “adenylate cyclase activity through group II and III mGluRs” value in data set [5] (by stimulating group II and III mGluRs (Oka 1997)) is given as “may also inhibit adenylate cyclase activity”. In data set [5] (through activation of group I mGluRs (Oka 1997)), the “adenylate cyclase activity through group I mGluRs” value is reported as “may stimulate adenylate cyclase activity”.

For `NC(=O)CN1CCCC1=O` [piracetam], the ADHD symptoms entry in data set [6] is given as “increase ADHD symptoms”.
